In the NIST ThermoML archive (doi:10.1007/s10765-007-0223-x):

Assay: xn = mol fraction of the nth substance listed
Settings: 101 kPa, Liquid; for speed of sound: Single path-length method

CCc1ccccc1 [ethylbenzene] + COC(C)(C)C
Settings	mass density, 295.65 K [kg/m3]	mass density, 298.15 K [kg/m3]	mass density, 300.65 K [kg/m3]	mass density, 303.15 K [kg/m3]	speed of sound, 298.15 K [m/s]	speed of sound, 300.65 K [m/s]	speed of sound, 303.15 K [m/s]	speed of sound, 305.65 K [m/s]
x2 = 0	–	862.459	860.256	858.047	1318.4	1307.9	1297.5	1287.1
x2 = 0.046	–	857.231	855.014	852.795	1306	1295.8	1285.5	1275.2
x2 = 0.106	–	850.237	848.001	845.762	1291.4	1280.9	1270.4	1260
x2 = 0.212	–	837.881	835.613	833.338	1264.1	1253.5	1242.9	1232.4
x2 = 0.299	–	827.364	825.064	822.758	1241.2	1230.5	1219.8	1209.2
x2 = 0.402	–	814.636	812.278	809.93	1212.7	1201.5	1190.7	1180
x2 = 0.503	805.684	803.312	800.937	798.555	1187.3	1176.4	1165.5	1154.7
x2 = 0.6	791.851	789.435	787.011	784.554	1156.8	1145.7	1134.2	1123.2
x2 = 0.701	778.587	776.124	773.654	771.175	1127	1115.9	1104.8	1093.7
x2 = 0.822	762.221	759.695	757.162	754.617	1090.5	1079.2	1068	1056.8
x2 = 0.899	751.405	748.835	746.257	743.666	1066.3	1054.9	1043.6	1032.3
x2 = 0.948	744.369	741.772	739.163	736.543	1050.8	1039.4	1028	1016.6
